ChEMBL document CHEMBL1201862, “PubChem BioAssay data set” (2004)
Active and inactive are the calls of the source.

What was measured:
[1] = target: Protein-tyrosine kinase 2-beta (Homo sapiens, UniProt Q14289);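 also: potency of inhibitors of PYK2 kinase phosphorylation of poly-GT substrate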
[2] = target: Bifunctional protein GlmU (Mycobacterium tuberculosis, UniProt P9WMN3); test: Inhibitors of Mycobacterial Glucosamine-1-phosphate acetyl transferase (GlmU). Secondary screen.; parameters: species or system Mycobacterium tuberculosis H37Rv
Ephrin type-A receptor 4 = Ephrin type-A receptor 4 (Mus musculus, UniProt Q03137); test: inhibitors of EphA4 binding to KYL peptide, primary screen, biochemical, colorimetric, mouse EphA4 (AID 689); assay type: functional
ORF 73 = ORF 73 (Human herpesvirus 8, UniProt O40947); test: inhibitors of C-LANA binding to LBS DNA, dose response, biochemical, fluorescence polarization, cherry-picked samples (AID 504725); parameters: species or system Human gammaherpesvirus 8;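 also: fluorescence polarization of a labeled DNA duplex reporting LANA DNA binding; potency is for inhibitors that block LANA binding to the DNA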
Troponin, cardiac muscle = Troponin, cardiac muscle (Homo sapiens, UniProt P19429+P45379+P63316); test: inhibitors of cardiac thin filament calcium sensitivity, dose response, biochemical, fluorescence, cardiac regulated thin filaments, triplicate IC50 (AID 504742); assay type: protein-complex assay
[3] = target: Intestinal-type alkaline phosphatase (Mus musculus, UniProt P24822); test: PubChem AID 488785; assay type: functional
[4] = target: T1, Alkaline phosphatase, tissue-nonspecific isozyme (Homo sapiens, UniProt P05186); test: TNAP enzyme inhibition by screening hits, dose response, selectivity assay for mouse IAP inhibitor project, biochemical, human TNAP, uHTS hits (AID 488906); assay type: functional
T1 sequence (P05186 whole entry): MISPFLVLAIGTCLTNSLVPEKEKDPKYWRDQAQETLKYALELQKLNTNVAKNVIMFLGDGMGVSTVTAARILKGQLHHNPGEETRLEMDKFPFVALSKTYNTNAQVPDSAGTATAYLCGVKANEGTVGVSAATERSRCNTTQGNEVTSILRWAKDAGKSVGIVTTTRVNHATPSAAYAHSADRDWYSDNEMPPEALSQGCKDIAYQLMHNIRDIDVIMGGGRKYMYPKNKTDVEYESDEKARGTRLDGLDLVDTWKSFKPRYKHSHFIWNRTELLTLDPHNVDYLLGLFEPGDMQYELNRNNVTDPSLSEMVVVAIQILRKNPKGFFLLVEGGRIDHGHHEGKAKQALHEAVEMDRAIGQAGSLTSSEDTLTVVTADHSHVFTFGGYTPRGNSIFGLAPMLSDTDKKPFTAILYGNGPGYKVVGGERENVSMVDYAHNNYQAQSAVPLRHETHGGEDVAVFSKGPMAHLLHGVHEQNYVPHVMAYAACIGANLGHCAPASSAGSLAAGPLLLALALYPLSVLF

[5] = target: Intestinal-type alkaline phosphatase (Homo sapiens, UniProt P09923); test: inhibition of human intestinal alkaline phosphatase – biochemical, dose response (AID 488876); assay type: functional
[6] = target: T2, DNA dC->dU-editing enzyme APOBEC-3A (Homo sapiens, UniProt P31941); test: SAR analysis of small molecule inhibitors of APOBEC3A DNA Deaminase via a fluorescence-based single-stranded DNA deaminase assay - Set 2.; assay type: functional; details: read-out: IC50_Mean
[7] = target: T3, DNA dC->dU-editing enzyme APOBEC-3G (Homo sapiens, UniProt Q9HC16); test: SAR analysis of small molecule inhibitors of APOBEC3G DNA Deaminase via a fluorescence-based single-stranded DNA deaminase assay - Set 2.; assay type: functional; details: read-out: IC50_Mean
[8] = target: T3, DNA dC->dU-editing enzyme APOBEC-3G; test: APOBEC3G deaminase inhibitors, SAR follow-up, biochemical, fluorescence, single-stranded DNA substrate (AID 602136); assay type: functional; details: read-out: IC50_Mean
[9] = target: T2, DNA dC->dU-editing enzyme APOBEC-3A; test: SAR analysis of small molecule inhibitors of APOBEC3A DNA Deaminase via a fluorescence-based single-stranded DNA deaminase assay.; assay type: functional; details: read-out: IC50_Mean
[10] = Artemis endonuclease inhibitor potency, dose response, biochemical, fluorescence intensity (AID 720701); assay type: functional;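 also: Artemis endonuclease enzyme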
[11] = target: T4, Histone-lysine N-methyltransferase NSD2 (Homo sapiens, UniProt O96028); assay type: biochemical
T4 sequence (O96028 whole entry): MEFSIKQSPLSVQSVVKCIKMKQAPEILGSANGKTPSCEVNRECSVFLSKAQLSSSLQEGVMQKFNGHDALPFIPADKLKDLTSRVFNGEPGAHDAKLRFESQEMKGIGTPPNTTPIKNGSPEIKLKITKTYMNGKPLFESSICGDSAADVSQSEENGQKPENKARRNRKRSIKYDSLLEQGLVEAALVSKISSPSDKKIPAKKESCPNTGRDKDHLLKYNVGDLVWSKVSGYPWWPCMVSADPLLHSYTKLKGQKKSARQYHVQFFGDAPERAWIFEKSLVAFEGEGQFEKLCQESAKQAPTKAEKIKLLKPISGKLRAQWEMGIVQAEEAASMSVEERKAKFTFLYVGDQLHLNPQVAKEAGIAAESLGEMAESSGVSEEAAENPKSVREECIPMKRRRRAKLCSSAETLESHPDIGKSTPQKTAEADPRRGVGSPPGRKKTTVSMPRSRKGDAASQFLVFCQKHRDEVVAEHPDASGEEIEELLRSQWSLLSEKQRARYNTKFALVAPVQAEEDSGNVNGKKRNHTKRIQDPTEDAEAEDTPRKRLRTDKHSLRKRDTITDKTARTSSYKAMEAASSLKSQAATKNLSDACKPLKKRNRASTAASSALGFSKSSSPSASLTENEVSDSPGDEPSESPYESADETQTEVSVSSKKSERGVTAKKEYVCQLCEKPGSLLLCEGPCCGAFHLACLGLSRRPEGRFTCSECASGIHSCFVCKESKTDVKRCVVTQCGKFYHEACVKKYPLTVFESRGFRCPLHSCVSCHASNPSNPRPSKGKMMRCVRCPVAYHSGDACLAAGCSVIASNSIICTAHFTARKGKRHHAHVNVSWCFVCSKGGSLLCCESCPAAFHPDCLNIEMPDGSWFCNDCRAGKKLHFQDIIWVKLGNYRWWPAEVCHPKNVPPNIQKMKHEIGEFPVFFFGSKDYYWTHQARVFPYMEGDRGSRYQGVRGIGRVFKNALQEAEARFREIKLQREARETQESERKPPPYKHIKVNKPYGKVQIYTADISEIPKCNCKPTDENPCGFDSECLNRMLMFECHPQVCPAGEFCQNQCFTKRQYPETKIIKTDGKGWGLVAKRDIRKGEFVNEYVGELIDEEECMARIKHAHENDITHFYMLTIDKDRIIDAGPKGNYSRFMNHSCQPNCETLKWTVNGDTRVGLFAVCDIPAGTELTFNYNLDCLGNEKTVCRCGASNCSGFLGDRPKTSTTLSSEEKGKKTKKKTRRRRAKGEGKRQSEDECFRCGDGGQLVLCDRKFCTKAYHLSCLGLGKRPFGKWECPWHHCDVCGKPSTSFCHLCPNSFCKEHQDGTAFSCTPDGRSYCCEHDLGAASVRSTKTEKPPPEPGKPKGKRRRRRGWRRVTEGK

[12] = target: 1-phosphatidylinositol 4,5-bisphosphate phosphodiesterase gamma-1 (Homo sapiens, UniProt P19174); test: Counterscreen for inhibitors of phospholipase C isozymes (PLC-B3): Fluorescence-based biochemical high throughput dose response assay to identify inhibitors of phospholipase C isozymes (PLC-gamma1).
[13] = target: 1-phosphatidylinositol 4,5-bisphosphate phosphodiesterase beta-3 (Homo sapiens, UniProt Q01970); test: Fluorescence-based biochemical high throughput dose response assay to identify inhibitors of phospholipase C isozymes (PLC-B3).
[14] = microbe, parasite or virus in culture; assay type: functional; details: Mycobacterium tuberculosis
[15] = Luminescence Cell-Based Dose Retest to Confirm Inhibitors of Cancer Stem Cells. [Related pubchem assays (depositor defined):AID2717, AID2721]; assay type: functional; details: Homo sapiens
[16] = cytotoxicity in HMLE control line with eGFP shRNA, dose response, counter-screen for HMLE_sh_ECad selective toxicity project, cell-based, HMLE_sh_eGFP, luminescence (AID 463074); assay type: functional, Homo sapiens;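 also: HMLE human mammary epithelial cells expressing control shRNA against eGFP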
[17] = Vero cell cytotoxicity, dose response, cytotoxicity control for M. tuberculosis growth inhibitor project, Vero cells, purified and synthesized compounds, set 5 (AID 504909); assay type: functional; details: Mycobacterium tuberculosis
[18] = A Cell Based Secondary Assay to Explore Cytotoxicity in THP-1 Cells of Compounds that Modulate Mycobacterium tuberculosis in Media Containing Glycerol versus Media without Glycerol (2).; assay type: functional
[19] = Vero cell cytotoxicity, cytotoxicity control for M. tuberculosis inhibitor project, purified and synthesized samples, set 3 (AID 504684); assay type: functional
[20] = HepG2 cell cytotoxicity, cytotoxicity control, set 4 (AID 504910); assay type: functional; details: Mycobacterium tuberculosis
[21] = THP-1 cell cytotoxicity, cytotoxicity control, set 4 (AID 504911); assay type: functional; details: Mycobacterium tuberculosis
[22] = A Cell Based Secondary Assay to Explore Cytotoxicity in HepG2 Cells of Compounds that Modulate Mycobacterium tuberculosis in Media Containing Glycerol versus Media without Glycerol (2).; assay type: functional
[23] = HepG2 cell cytotoxicity, dose response, cytotoxicity control, set 3 (AID 504853); assay type: functional; details: Mycobacterium tuberculosis
[24] = THP-1 cell cytotoxicity, dose response, cytotoxicity control, set 3 (AID 504852); assay type: functional; details: Mycobacterium tuberculosis
[25] = Vero cell cytotoxicity, dose response, cytotoxicity control for M. tuberculosis growth inhibitor project, Vero cells, purified and synthesized compounds, set 4 (AID 504854); assay type: functional; details: Mycobacterium tuberculosis
[26] = target: Serine/threonine-protein kinase pim-1 (Homo sapiens, UniProt P11309); assay type: functional
[27] = target: Cell division cycle 7-related protein kinase (Homo sapiens, UniProt O00311); assay type: functional;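 also: value obtained from a kinome-wide kinase panel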
[28] = target: Homeodomain-interacting protein kinase 2 (Homo sapiens, UniProt Q9H2X6); assay type: functional;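 also: measured within a kinome-wide kinase profiling panel, HIPK2 being one panel member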
[29] = target: MAP kinase-interacting serine/threonine-protein kinase 2 (Homo sapiens, UniProt Q9HBH9); assay type: functional
[30] = target: Interleukin-1 receptor-associated kinase 4 (Homo sapiens, UniProt Q9NWZ3); assay type: functional
[31] = target: Glycogen synthase kinase-3 beta (Homo sapiens, UniProt P49841); assay type: functional;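 also: value comes from a broad kinome profiling panel, with GSK3B as the panel member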
[32] = target: cAMP-dependent protein kinase catalytic subunit alpha (Homo sapiens, UniProt P17612); assay type: functional
[33] = target: Dual specificity protein kinase CLK4 (Homo sapiens, UniProt Q9HAZ1); assay type: functional
[34] = target: Mitogen-activated protein kinase kinase kinase kinase 4 (Homo sapiens, UniProt O95819); assay type: functional
[35] = target: Megakaryocyte-associated tyrosine-protein kinase (Homo sapiens, UniProt P42679); assay type: functional;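 also: affinity measured as one member of a kinase panel (Navigating the Kinome) against MATK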
[36] = target: Eukaryotic elongation factor 2 kinase (Homo sapiens, UniProt O00418); assay type: functional
[37] = target: Serine/threonine-protein kinase Chk2 (Homo sapiens, UniProt O96017); assay type: functional;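 also: CHEK2 entry within a kinome-wide screening panel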
[38] = target: Mitogen-activated protein kinase 13 (Homo sapiens, UniProt O15264); assay type: functional
[39] = target: Protein kinase C gamma type (Homo sapiens, UniProt P05129); assay type: functional
[40] = target: Inhibitor of nuclear factor kappa-B kinase subunit alpha (Homo sapiens, UniProt O15111); assay type: functional
[41] = target: MAP kinase-activated protein kinase 3 (Homo sapiens, UniProt Q16644); assay type: functional;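 also: value comes from a kinome-wide profiling panel in which MAPKAPK3 is one of the panel members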
Misshapen-like kinase 1 = Misshapen-like kinase 1 (Homo sapiens, UniProt Q8N4C8); assay type: functional;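 also: kinome panel screen with MINK as the panel member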
[42] = target: Serine/threonine-protein kinase Nek4 (Homo sapiens, UniProt P51957); assay type: functional
[43] = target: Dual specificity tyrosine-phosphorylation-regulated kinase 4 (Homo sapiens, UniProt Q9NR20); assay type: functional
[44] = target: Homeodomain-interacting protein kinase 4 (Homo sapiens, UniProt Q8NE63); assay type: functional
[45] = target: Inhibitor of nuclear factor kappa-B kinase subunit beta (Homo sapiens, UniProt O14920); assay type: functional

T3 sequence (Q9HC16 whole entry): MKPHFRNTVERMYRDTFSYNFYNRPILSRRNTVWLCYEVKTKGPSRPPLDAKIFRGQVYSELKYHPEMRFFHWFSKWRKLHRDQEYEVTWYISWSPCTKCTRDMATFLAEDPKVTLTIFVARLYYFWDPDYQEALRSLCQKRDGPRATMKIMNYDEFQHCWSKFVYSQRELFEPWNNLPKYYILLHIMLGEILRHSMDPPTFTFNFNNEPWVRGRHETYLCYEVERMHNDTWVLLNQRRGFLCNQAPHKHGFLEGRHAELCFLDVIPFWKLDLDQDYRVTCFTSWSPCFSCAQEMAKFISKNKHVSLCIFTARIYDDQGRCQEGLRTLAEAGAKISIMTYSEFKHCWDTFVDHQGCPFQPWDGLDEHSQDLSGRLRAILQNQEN
T2 sequence (P31941 whole entry): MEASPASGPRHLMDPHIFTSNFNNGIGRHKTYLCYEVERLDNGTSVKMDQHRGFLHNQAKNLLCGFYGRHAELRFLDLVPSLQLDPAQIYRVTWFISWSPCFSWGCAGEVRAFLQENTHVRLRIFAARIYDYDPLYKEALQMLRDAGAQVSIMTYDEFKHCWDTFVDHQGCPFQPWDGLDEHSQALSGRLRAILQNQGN
Sequence of Homeodomain-interacting protein kinase 2 (Q9H2X6 whole entry): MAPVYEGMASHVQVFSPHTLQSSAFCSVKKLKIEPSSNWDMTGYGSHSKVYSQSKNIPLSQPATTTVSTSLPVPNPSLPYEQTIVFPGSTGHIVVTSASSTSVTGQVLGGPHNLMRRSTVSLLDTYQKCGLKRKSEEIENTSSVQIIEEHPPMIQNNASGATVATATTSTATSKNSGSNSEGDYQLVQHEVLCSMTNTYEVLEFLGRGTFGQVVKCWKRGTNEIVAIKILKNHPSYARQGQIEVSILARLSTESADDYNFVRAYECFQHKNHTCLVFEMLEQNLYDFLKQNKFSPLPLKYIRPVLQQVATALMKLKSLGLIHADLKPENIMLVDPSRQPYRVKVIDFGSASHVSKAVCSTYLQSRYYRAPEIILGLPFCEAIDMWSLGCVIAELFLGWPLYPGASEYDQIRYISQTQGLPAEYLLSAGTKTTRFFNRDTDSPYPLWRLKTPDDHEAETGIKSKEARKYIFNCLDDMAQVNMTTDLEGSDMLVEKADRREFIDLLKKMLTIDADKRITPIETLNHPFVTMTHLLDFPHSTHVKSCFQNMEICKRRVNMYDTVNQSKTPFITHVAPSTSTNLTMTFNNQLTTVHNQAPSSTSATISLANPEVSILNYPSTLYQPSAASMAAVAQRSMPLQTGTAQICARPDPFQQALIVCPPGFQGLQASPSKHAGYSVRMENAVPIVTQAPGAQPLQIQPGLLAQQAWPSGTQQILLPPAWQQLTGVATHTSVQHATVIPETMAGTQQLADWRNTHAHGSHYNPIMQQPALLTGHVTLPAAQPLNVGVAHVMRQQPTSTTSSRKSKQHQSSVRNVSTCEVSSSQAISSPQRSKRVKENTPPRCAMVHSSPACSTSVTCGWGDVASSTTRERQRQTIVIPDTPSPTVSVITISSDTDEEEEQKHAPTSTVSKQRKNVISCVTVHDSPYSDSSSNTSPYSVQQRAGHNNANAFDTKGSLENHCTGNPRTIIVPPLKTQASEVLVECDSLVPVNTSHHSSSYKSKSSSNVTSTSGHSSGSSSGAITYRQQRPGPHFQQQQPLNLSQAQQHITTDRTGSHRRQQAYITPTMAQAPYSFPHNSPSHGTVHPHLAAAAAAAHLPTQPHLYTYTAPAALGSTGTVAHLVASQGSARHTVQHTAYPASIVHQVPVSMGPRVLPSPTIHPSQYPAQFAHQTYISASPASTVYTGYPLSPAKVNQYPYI
Sequence of Mitogen-activated protein kinase kinase kinase kinase 4 (O95819 whole entry): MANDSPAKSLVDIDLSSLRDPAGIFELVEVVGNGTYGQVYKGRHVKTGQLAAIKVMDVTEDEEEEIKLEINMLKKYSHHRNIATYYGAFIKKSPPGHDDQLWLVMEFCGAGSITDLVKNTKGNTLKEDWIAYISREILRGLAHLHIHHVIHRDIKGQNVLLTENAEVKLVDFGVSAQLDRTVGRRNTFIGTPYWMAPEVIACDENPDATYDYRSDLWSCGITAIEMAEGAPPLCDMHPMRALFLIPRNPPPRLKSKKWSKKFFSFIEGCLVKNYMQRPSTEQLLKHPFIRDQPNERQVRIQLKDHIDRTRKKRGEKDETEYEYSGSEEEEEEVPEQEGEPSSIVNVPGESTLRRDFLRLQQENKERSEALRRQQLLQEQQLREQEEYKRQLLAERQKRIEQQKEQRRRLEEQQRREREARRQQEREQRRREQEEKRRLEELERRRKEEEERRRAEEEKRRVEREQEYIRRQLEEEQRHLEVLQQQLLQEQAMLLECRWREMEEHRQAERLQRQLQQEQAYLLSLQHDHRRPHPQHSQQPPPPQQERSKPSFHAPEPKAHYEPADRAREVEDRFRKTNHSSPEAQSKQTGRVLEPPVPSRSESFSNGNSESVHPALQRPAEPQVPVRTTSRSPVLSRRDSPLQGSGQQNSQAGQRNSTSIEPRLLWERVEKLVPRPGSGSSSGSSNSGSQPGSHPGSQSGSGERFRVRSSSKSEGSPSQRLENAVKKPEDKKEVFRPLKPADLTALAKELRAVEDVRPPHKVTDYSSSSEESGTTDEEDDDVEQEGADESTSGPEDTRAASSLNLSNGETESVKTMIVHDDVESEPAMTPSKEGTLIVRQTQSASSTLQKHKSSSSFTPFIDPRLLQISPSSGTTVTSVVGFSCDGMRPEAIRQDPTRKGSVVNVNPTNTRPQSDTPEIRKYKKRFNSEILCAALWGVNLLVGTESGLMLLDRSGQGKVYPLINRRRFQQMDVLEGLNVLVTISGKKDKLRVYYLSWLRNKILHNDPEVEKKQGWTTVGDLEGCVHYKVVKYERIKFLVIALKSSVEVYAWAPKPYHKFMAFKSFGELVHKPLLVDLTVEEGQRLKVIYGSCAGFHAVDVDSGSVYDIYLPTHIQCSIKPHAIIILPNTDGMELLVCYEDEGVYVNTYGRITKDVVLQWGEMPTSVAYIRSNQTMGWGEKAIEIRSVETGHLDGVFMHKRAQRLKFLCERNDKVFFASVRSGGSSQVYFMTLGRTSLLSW
Sequence of MAP kinase-activated protein kinase 3 (Q16644 whole entry): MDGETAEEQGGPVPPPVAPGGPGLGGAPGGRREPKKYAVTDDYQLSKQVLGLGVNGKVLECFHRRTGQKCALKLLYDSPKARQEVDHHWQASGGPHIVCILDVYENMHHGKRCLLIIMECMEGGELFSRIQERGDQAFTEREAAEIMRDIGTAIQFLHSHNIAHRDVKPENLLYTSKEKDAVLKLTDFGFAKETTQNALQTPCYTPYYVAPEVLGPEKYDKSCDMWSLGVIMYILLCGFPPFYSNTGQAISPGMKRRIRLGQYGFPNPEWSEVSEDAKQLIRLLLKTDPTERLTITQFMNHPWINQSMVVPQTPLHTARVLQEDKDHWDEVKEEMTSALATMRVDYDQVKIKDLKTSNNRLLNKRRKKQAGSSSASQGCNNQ
Sequence of Serine/threonine-protein kinase Chk2 (O96017 whole entry): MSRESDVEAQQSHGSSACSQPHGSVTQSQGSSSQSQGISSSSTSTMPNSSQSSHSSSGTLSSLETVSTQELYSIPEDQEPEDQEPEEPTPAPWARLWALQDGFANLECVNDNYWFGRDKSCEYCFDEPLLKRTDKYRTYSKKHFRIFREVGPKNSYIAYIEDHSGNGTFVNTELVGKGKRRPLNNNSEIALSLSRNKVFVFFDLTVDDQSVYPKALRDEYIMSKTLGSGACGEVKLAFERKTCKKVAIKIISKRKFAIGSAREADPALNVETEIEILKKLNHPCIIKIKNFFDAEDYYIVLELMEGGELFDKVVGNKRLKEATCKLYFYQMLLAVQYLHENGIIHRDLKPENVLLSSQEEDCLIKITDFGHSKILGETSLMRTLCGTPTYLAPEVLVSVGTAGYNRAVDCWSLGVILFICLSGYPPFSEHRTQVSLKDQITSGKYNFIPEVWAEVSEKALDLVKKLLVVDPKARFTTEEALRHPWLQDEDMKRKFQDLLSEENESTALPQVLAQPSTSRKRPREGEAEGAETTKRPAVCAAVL
Sequence of Homeodomain-interacting protein kinase 4 (Q8NE63 whole entry): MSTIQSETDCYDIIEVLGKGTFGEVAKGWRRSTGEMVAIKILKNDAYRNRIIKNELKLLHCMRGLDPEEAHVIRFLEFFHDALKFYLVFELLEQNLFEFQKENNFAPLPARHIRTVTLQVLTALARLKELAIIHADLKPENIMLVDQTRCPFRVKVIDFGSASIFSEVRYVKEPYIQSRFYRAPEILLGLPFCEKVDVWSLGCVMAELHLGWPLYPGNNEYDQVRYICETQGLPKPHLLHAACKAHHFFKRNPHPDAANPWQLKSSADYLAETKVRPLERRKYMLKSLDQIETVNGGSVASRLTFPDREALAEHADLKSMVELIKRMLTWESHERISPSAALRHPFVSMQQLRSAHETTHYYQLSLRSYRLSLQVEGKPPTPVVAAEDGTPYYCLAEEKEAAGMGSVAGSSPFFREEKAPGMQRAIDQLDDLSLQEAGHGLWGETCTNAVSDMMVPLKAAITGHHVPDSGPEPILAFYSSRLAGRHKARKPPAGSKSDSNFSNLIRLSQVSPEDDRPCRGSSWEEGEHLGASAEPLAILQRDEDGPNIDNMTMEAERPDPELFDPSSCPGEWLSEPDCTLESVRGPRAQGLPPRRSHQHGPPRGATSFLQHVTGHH
Sequence of Dual specificity protein kinase CLK4 (Q9HAZ1 whole entry): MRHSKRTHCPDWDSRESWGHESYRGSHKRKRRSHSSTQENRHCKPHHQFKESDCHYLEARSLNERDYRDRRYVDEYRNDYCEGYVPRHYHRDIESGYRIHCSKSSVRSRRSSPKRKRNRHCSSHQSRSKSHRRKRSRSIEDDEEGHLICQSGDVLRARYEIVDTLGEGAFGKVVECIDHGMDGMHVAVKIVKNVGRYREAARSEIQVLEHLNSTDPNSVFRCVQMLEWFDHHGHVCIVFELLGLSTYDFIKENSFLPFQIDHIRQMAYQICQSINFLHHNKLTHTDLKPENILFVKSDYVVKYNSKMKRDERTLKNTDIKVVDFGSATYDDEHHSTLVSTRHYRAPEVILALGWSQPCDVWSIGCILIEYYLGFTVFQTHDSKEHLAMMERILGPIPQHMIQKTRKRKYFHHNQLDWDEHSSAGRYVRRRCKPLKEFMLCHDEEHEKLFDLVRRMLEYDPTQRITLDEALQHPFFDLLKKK

## CC(C(=O)O)N1C(=O)/C(=C/C=C/c2ccco2)SC1=S (stereo not given)
[1]
  IC50: 1.07 µM (active)
[2]
  IC50: 61.4 µM (active)
Ephrin type-A receptor 4
  IC50: 2.79 µM (active)
ORF 73
  AC50: 45.6 µM (active)
Troponin, cardiac muscle
  IC50: > 71.5 µM (inactive)
[3]
  IC50: 10 µM (active)
[4]
  IC50: > 100 µM (inactive)
[5]
  IC50: > 100 µM (inactive)
[6]
  IC50: 1.21 µM (active)
[7]
  IC50: 0.884 µM (active)
[8]
  IC50: 2.08 µM (active)
[9]
  IC50: 1.19 µM (active)
[10]
  IC50: > 20 µM (inactive)
[11]
  AC50: 1.63 µM (active)
[12]
  IC50: > 122 µM (inactive)
[13]
  IC50: > 122 µM (inactive)

## Cc1cccc(-c2oc3ccc(-c4ccc5c(c4)OCO5)cc3c2C#Cc2cncn2C)c1
[14]
  CC50: > 40 µM (active)
[15]
  AC50: 5.28 µM (active)
[16]
  AC50: 21.8 µM (active)
[17]
  CC50: 85.2 µM (active)
[18]
  CC50: 43.8 µM (active)
[19]
  CC50: 42.3 µM (active)
[20]
  CC50: > 50 µM (active)
[21]
  CC50: > 44.8 µM (active)
[22]
  CC50: > 50 µM (active)
[23]
  CC50: > 50 µM (active)
[24]
  CC50: 34.6 µM (active)
[25]
  CC50: > 93 µM (active)

## c1ccc(Cn2cc(-c3ccc4[nH]nc(-c5ccccc5)c4c3)nn2)cc1
[26]
  Ki: 0.251 µM (active)
[27]
  Ki: 0.00794 µM (active)
[28]
  Ki: 0.0316 µM (active)
[29]
  Ki: 0.2 µM (active)
[30]
  Ki: 0.631 µM (active)
[31]
  Ki: 0.02 µM (active)
[32]
  Ki: 3.98 µM (active)
[33]
  Ki: 0.00398 µM (active)
[34]
  Ki: 0.0398 µM (active)

## CCC(CO)Nc1nc(NCc2ccccc2)c2ncn(C(C)C)c2n1 (stereo not drawn) [(RS)-ROSCOVITINE]
[35]
  Ki: > 2 µM (inactive)
[36]
  Ki: > 3.98 µM (inactive)
[37]
  Ki: > 5.01 µM (inactive)
[28]
  Ki: > 3.16 µM (inactive)
[38]
  Ki: > 7.94 µM (inactive)
[39]
  Ki: > 7.94 µM (inactive)
[40]
  Ki: > 3.98 µM (inactive)
[41]
  Ki: > 10 µM (inactive)
Misshapen-like kinase 1
  Ki: > 7.94 µM (inactive)
[42]
  Ki: > 6.31 µM (inactive)
[43]
  Ki: > 7.94 µM (inactive)
[44]
  Ki: 1.58 µM (active)
[45]
  Ki: > 3.16 µM (inactive)
